Measured values from patent US11000601B2, “Conjugated biological molecules, pharmaceutical compositions and methods” (OBI Pharma, Inc., priority 2016, dated 2021).
Values joined by “and” are separate entries in the source; they are usually repeats but may differ in a detail not shown here. Equal values may be shown once. Square brackets hold non-standard residues; d marks the D form. Peptide text beside a SMILES is read from it. * marks the point of attachment. Dolaproine = CO[C@@H]([C@@H]1CCCN1)[C@@H](C)C(=O)O; Dil = CC[C@H](C)[C@H](NC)[C@@H](CC(=O)O)OC; X1 = C[C@@H](N*)[C@@H](O)c1ccccc1; NMeV = CN[C@H](C(=O)O)C(C)C

Columns and labels:
[1] = Body weight, mortality and signs of overt toxicity in NCI-H526 implanted female nu/nu mice; assay type: in vivo, mouse; settings: for Body Weight (g), Mean: group mean; for Body Weight (g), individual animal No. 1-8: single mice; for Body Weight / Body Weight (g): individual mice, 0.191 mg/kg
Procedure: In a xenograft tumor model of human small cell lung cancer, viable NCI-H526 stage E carcinoma; variant small cell lung cancer cells (ATCC CRL-5811), were subcutaneously (SC) implanted (1×10^6 cells with matrigel (1:0.8) in 0.2 mL/mouse) into the right flank of female nu/nu mice. Tumor implanted mice were divided into five treatment groups, each group containing eight animals, and test agent administrations were initiated one day after cell implantation (denoted as Day 1).
Female nu/nu nude, aged 6-7 weeks, were obtained from BioLasco Taiwan (under Charles River Laboratories Licensee) and used. The animals were housed in individually ventilated cages (IVC, 36 Mini Isolator system). The allocation for 5 animals was 27×20×14 in cm. All animals were maintained in a hygienic environment under controlled temperature (20-24° C.) and humidity (30-70%) with 12-hour light/dark cycle. Free access to standard lab diet [MFG (Oriental Yeast Co., Ltd., Japan)] and autoclaved tap water were granted. All aspects of this work including housing, experimentation, and animal disposal were performed in general accordance with the “Guide for the Care and Use of Laboratory Animals: Eighth Edition” (National Academies Press, Washington, D.C., 2011) in our AAALAC-accredited laboratory animal facility. In addition, the animal care and use protocol was reviewed and approved by the IACUC at Eurofins Panlabs Taiwan, Ltd.
The tumor volumes, body weights, mortality, and signs of overt toxicity were monitored and recorded twice weekly for 45 days. Tumor growth inhibition was calculated as T/C (treatment/control)×100%. A T/C value≤42% compared to that of the vehicle control group was considered significant anti-tumor activity. Two-way ANOVA followed by Bonferroni test was used to ascertain the statistically significant significance of groups compared to respective vehicle control (*p<0.05).

[2] = Body weight in male BALB/c nude mice bearing HPAC established tumors; settings: QW x 4, MMAE 0.191 mg/kg IP; for Body Weight (g), Mean: group mean; for Body Weight (g), Mean / Body Weight: ADC (OBI-999) and OBI-888 10 mg/kg IV; for Body Weight: individual animals
Procedure: Male nu/nu nude, aged 6-8 weeks, were obtained from Shanghai Lingchang and used. The mice were kept in individual ventilation cages at constant temperature and humidity with four animals in each cage (temperature: 20-26° C. and humidity: 40-70%). The cages were made of polycarbonate and the size was 300 mm×200 mm×180 mm. The bedding material was corn cob, which was changed twice per week. Animals had free access to irradiation sterilized dry granule food and drinking water during the entire study period. The identification labels for each cage contained the following information: number of animals, sex, strain, date received, treatment, study number, group number and the starting date of the treatment.

[3] = Day 1, NCI-H526 xenograft, female nu/nu mice, OBI-999/OBI-888 10 mg/kg IV, MMAE 0.191 mg/kg IP, once weekly x 4
[4] = Day 4, NCI-H526 xenograft, female nu/nu mice, OBI-999/OBI-888 10 mg/kg IV, MMAE 0.191 mg/kg IP, once weekly x 4
[5] = Day 15, NCI-H526 xenograft, female nu/nu mice, OBI-999/OBI-888 10 mg/kg IV, MMAE 0.191 mg/kg IP, once weekly x 4
[6] = Day 18, NCI-H526 xenograft, female nu/nu mice, OBI-999/OBI-888 10 mg/kg IV, MMAE 0.191 mg/kg IP, once weekly x 4
[7] = Day 31, NCI-H526 xenograft, female nu/nu mice, OBI-999/OBI-888 10 mg/kg IV, MMAE 0.191 mg/kg IP, once weekly x 4
[8] = Day 39, NCI-H526 xenograft, female nu/nu mice, OBI-999/OBI-888 10 mg/kg IV, MMAE 0.191 mg/kg IP, once weekly x 4
[9] = Gr. 8, 0.191 mg/kg × 4 IP once weekly, Day 57
[10] = Gr. 8, 0.191 mg/kg × 4 IP once weekly, Day 60
[11] = Gr. 8, 0.191 mg/kg × 4 IP once weekly, Day 64
[12] = Gr. 8, 0.191 mg/kg × 4 IP once weekly, Day 67
[13] = Gr. 8, 0.191 mg/kg × 4 IP once weekly, Day 70
[14] = Gr. 8, 0.191 mg/kg × 4 IP once weekly, Day 74
[15] = Gr. 8, 0.191 mg/kg × 4 IP once weekly, Day 78
[16] = Gr. 8, 0.191 mg/kg × 4 IP once weekly, Day 81
[17] = Gr. 8, 0.191 mg/kg × 4 IP once weekly, Day 85

With `CC[C@H](C)[C@@H]([C@@H](CC(=O)N1CCC[C@H]1[C@H](OC)[C@@H](C)C(=O)N[C@H](C)[C@@H](O)c1ccccc1)OC)N(C)C(=O)[C@@H](NC(=O)[C@@H](NC)C(C)C)C(C)C` [MMAE, monomethyl auristatin E] (H-[NMeV]V[Dil][Dolaproine]-X1) the “Body Weight (g), Mean” value [1, 3] was 23.9 g, the “Body Weight (g), individual animal No. 1-8” value [1, 3] was 24 g (3×) and 25 g and 26 g and 23 g (2×) and 22 g and the “Body Weight (g), Mean” value [1, 4] was 23.6 g. For the same molecule, the “Body Weight (g), individual animal No. 1-8” value [1, 4] was 22 g and 25 g and 27 g and 21 g and 23 g (2×) and 24 g (2×), the “Body Weight (g), individual animal No. 1-8” value ([1]; Day 8, NCI-H526 xenograft, female nu/nu mice, OBI-999/OBI-888 10 mg/kg IV, MMAE 0.191 mg/kg IP, once weekly x 4) was 24 g (2×) and 26 g and 28 g and 21 g and 25 g (2×) and 23 g and the “Body Weight (g), individual animal No. 1-8” value ([1]; Day 11, NCI-H526 xenograft, female nu/nu mice, OBI-999/OBI-888 10 mg/kg IV, MMAE 0.191 mg/kg IP, once weekly x 4) was 24 g (3×) and 28 g (2×) and 23 g (2×) and 25 g. For the same molecule, the “Body Weight (g), Mean” value [1, 5] was 25.4 g, the “Body Weight (g), individual animal No. 1-8” value [1, 5] was 25 g (2×) and 28 g (2×) and 24 g (2×) and 23 g and 26 g and the “Body Weight (g), Mean” value [1, 6] was 25.4 g. The “Body Weight (g), individual animal No. 1-8” value [1, 6] was 25 g (3×) and 28 g (2×) and 24 g (3×), the “Body Weight (g), individual animal No. 1-8” value ([1]; Day 22, NCI-H526 xenograft, female nu/nu mice, OBI-999/OBI-888 10 mg/kg IV, MMAE 0.191 mg/kg IP, once weekly x 4) was 24 g (2×) and 28 g (2×) and 25 g (4×) and the “Body Weight (g), individual animal No. 1-8” value ([1]; Day 25, NCI-H526 xenograft, female nu/nu mice, OBI-999/OBI-888 10 mg/kg IV, MMAE 0.191 mg/kg IP, once weekly x 4) was 26 g (3×) and 30 g and 29 g and 25 g (3×). The “Body Weight (g), individual animal No. 1-8” value ([1]; Day 29, NCI-H526 xenograft, female nu/nu mice, OBI-999/OBI-888 10 mg/kg IV, MMAE 0.191 mg/kg IP, once weekly x 4) was 25 g and 32 g and 31 g and 26 g (2×) and 27 g (3×), the “Body Weight (g), Mean” value [1, 7] was 27.8 g and the “Body Weight (g), individual animal No. 1-8” value [1, 7] was 25 g and 32 g (2×) and 26 g (2×) and 27 g (3×). For the same molecule, the “Body Weight (g), individual animal No. 1-8” value ([1]; Day 36, NCI-H526 xenograft, female nu/nu mice, OBI-999/OBI-888 10 mg/kg IV, MMAE 0.191 mg/kg IP, once weekly x 4) was 26 g (2×) and 33 g (2×) and 28 g and 27 g and 29 g (2×), the “Body Weight (g), Mean” value [1, 8] was 30.3 g and the “Body Weight (g), individual animal No. 1-8” value [1, 8] was 27 g (3×) and 38 g and 34 g and 30 g (2×) and 29 g. The “Body Weight” value [1, 9] was 27 g (4×) and 24 g and 26 g, the “Body Weight (g)” value [1, 9] was “died” and the “Body Weight” value [1, 10] was 27 g (2×) and 25 g and 28 g (2×) and 26 g. The “Body Weight (g)” value [1, 10] was “died”, the “Body Weight (g), Mean” value [1, 11] was 26.7 g and the “Body Weight” value [1, 11] was 27 g (4×) and 24 g and 28 g. For the same molecule, the “Body Weight (g)” value [1, 11] was “died”, the “Body Weight” value [1, 12] was 27 g (2×) and 25 g and 28 g (3×) and the “Body Weight (g)” value [1, 12] was “died”. The “Body Weight” value [1, 13] was 26 g (2×) and 25 g and 27 g (3×), the “Body Weight (g)” value [1, 13] was “died” and the “Body Weight” value [1, 14] was 27 g and 24 g (2×) and 28 g (3×). For the same molecule, the “Body Weight (g)” value [1, 14] was “died”, the “Body Weight” value [1, 15] was 28 g (4×) and 25 g (2×) and the “Body Weight (g)” value [1, 15] was “died”. The “Body Weight” value [1, 16] was 28 g (3×) and 25 g and 27 g and 24 g, the “Body Weight (g)” value [1, 16] was “died” and the “Body Weight” value [1, 17] was 27 g and 25 g and 28 g (2×) and 29 g and 23 g. For the same molecule, the “Body Weight (g)” value [1, 17] was “died”, the “Body Weight (g), Mean” value ([1]; Gr. 8, 0.191 mg/kg × 4 IP once weekly, Day 100) was 27.9 g and the “Body Weight (g), Mean” value ([2]; Day 0) was 24.2 g. The “Body Weight” value ([2]; Day 0) was 25.4 g and 24.2 g and 23.3 g and 24.0 g and 22.7 g, the “Body Weight (g), Mean” value ([2]; Day 3) was 22.1 g and the “Body Weight” value ([2]; Day 3) was 21.8 g and 22.4 g and 21.5 g and 21.6 g (2×) and 24.0 g and 20.7 g and 23.1 g. For the same molecule, the “Body Weight (g), Mean” value ([2]; Day 4) was 21.9 g, the “Body Weight” value ([2]; Day 4) was 21.0 g and 21.3 g and 20.5 g and 22.0 g and 19.6 g and 22.1 g and the “Body Weight (g), Mean” value ([2]; Day 7) was 23.6 g. The “Body Weight” value ([2]; Day 7) was 18.8 g and 25.1 g and 27.0 g and 21.7 g and 23.8 g, the “Body Weight” value ([2]; Day 9) was 22.2 g and the “Body Weight” value ([2]; Day 10) was 26.0 g. For the same molecule, the “Body Weight” value ([2]; Day 14) was 24.4 g and 26.0 g, the “Body Weight” value ([2]; Day 17) was 23.9 g and 26.0 g and 23.6 g and the “Body Weight” value ([2]; Day 21) was 23.8 g. The “Body Weight (g), Mean” value ([2]; Day 28) was 25.4 g, the “Body Weight” value ([2]; Day 31) was 25.0 g and 25.4 g and the “Body Weight (g), Mean” value ([2]; Day 35) was 26.0 g. The “Body Weight” value ([2]; Day 35) was 27.2 g, the “Body Weight” value ([2]; Day 37) was 26.7 g and 24.0 g and the “Animal status (Died / Euthanized)” value ([2]; individual animal, OBI-888 10 mg/kg IV) was “Died and Euthanized”.
